The results in this text go back to patent US11739098B2 (BRISTOL-MYERS SQUIBB COMPANY, priority 2017, dated 2023).

Holding throughout (assay type): cell-based
For one test, the target named is T1, human TLR8 (Homo sapiens, UniProt Q9NR97).
T1 construct: host or cells: HEK-Blue cells (HEK293-derived reporter line)
T1 sequence (Q9NR97 27-1041): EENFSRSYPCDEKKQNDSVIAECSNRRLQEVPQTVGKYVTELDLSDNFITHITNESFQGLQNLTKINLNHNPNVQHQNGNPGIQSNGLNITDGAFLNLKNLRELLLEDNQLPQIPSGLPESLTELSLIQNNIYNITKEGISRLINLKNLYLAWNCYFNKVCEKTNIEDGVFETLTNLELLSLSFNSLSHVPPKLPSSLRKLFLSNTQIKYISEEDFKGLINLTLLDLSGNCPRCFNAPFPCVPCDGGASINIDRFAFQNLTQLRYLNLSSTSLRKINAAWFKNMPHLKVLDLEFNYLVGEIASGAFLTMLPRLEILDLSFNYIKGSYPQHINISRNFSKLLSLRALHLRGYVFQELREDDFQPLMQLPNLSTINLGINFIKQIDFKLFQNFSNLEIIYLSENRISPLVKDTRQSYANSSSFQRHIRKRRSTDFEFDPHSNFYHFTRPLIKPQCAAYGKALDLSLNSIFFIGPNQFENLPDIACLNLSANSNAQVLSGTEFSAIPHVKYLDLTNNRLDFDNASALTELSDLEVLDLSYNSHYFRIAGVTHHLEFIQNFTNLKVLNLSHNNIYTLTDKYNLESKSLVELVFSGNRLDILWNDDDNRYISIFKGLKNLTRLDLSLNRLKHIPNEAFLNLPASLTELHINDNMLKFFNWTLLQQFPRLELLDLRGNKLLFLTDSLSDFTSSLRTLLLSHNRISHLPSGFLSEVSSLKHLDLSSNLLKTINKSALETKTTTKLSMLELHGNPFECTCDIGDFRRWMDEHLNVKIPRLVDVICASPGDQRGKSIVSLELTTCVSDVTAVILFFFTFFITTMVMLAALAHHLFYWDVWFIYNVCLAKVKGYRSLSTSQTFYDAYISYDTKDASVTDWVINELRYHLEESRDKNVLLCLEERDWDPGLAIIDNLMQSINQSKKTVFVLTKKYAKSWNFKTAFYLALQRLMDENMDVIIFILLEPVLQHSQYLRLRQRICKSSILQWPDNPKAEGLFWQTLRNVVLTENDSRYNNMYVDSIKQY
Description: TLR8 inhibition reporter assay (HEK-Blue cells, SEAP reporter, R848 stimulation). The following applies: HEK-Blue cells overexpressing human TLR8, SEAP reporter, R848 15.9 μM. An outline of the steps: (§1)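 HEK-Blue cells overexpressing human TLR7, TLR8 or TLR9 (NF-κB/AP-1-driven SEAP) pre-treated 30 min at room temperature with compound (0.05 nM–50 μM), then stimulated with gardiquimod 7.5 μM (TLR7), R848 15.9 μM (TLR8) or ODN2006 5 nM (TLR9). SEAP read colorimetrically after 22 h at 37 °C; % inhibition calculated.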
In general terms: In a reporter assay the amount or activity of a reporter protein is the signal.

The next test concerns the target T2, human TLR9 (Homo sapiens, UniProt Q9NR96).
T2 construct: host or cells: HEK-Blue cells (HEK293-derived reporter line)
T2 sequence (Q9NR96 26-1032): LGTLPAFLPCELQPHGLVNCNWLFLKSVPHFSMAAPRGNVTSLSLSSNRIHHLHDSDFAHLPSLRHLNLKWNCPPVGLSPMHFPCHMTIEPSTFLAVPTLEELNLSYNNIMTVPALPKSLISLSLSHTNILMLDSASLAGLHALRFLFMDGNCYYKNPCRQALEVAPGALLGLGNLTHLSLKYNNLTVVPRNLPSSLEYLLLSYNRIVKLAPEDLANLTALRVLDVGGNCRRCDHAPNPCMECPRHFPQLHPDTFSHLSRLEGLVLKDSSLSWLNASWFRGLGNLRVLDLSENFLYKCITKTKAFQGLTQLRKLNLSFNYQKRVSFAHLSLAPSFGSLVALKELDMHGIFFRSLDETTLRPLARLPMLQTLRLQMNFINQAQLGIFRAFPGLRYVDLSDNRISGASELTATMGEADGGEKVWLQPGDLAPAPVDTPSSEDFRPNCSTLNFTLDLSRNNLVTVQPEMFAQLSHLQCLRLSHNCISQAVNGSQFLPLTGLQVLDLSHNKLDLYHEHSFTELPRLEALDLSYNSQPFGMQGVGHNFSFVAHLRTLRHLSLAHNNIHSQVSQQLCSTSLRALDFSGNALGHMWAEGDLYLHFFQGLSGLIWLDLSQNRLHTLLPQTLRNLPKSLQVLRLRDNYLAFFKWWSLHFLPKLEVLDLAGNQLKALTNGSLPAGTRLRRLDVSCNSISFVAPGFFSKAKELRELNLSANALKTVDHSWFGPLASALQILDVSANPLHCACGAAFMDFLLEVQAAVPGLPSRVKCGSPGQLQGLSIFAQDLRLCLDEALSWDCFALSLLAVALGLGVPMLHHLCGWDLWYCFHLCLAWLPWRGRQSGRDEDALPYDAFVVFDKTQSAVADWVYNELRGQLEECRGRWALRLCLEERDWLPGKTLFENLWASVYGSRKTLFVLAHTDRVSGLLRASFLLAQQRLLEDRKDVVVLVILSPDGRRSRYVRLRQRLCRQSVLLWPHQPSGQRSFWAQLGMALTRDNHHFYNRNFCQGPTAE
Description: TLR9 inhibition reporter assay (HEK-Blue cells, SEAP reporter, ODN2006 stimulation). The settings on record: HEK-Blue cells overexpressing human TLR9, SEAP reporter, ODN2006 5 nM. In outline:
as §1

The target in a further test is T3, human TLR7 (Homo sapiens, UniProt Q9NYK1).
T3 construct: host or cells: HEK-Blue cells (HEK293-derived reporter line)
T3 sequence (Q9NYK1 27-1049): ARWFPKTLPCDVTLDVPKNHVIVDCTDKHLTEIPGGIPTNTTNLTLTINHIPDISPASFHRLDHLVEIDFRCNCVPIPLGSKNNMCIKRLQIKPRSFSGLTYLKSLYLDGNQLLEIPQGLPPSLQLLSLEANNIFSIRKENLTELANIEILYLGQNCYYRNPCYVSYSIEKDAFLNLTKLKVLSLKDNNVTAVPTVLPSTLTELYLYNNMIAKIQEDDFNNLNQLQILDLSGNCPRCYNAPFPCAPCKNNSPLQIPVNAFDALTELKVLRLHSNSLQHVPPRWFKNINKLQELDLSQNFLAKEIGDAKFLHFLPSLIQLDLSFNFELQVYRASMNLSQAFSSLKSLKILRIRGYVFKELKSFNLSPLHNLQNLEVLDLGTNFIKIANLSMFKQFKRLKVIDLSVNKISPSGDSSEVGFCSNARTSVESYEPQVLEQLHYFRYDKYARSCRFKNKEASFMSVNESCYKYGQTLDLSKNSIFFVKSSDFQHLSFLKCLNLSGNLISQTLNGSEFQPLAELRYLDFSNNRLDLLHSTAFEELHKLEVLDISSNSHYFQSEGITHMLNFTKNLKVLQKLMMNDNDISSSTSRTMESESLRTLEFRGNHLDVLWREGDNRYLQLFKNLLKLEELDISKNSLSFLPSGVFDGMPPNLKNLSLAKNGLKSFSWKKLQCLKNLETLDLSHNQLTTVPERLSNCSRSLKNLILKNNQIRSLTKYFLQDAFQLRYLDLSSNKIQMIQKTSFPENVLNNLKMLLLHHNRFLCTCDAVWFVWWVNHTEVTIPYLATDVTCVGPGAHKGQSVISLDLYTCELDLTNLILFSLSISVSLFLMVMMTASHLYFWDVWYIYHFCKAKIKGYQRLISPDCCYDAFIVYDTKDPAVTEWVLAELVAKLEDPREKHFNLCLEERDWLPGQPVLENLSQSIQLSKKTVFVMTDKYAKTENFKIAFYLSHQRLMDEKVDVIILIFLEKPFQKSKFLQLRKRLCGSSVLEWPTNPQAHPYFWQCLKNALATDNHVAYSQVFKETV
Description: TLR7 inhibition reporter assay (HEK-Blue cells, SEAP reporter, gardiquimod stimulation). The settings on record: HEK-Blue cells overexpressing human TLR7, SEAP reporter, gardiquimod 7.5 μM. An outline of the steps:
as §1

For the molecule `COc1ccc2nc(Cl)c(CN3CCC(c4ccc5[nH]c(-c6ccnc7[nH]ncc67)c(C(C)C)c5c4)CC3)cc2c1` [Example 902, 2-chloro-3-((4-(3-isopropyl-2-(1H-pyrazolo[3,4-b]pyridin-4-yl)-1H-indol-5-yl)piperidin-1-yl)methyl)-6-methoxyquinoline], the results for the IC50 on human TLR8, against human TLR9 and against human TLR7 were 100 to 1000 nM, above 50000 nM and 100 to 1000 nM, respectively.
Turning to `COc1cc(-c2[nH]c3ccc(C4CCN(C5CCOCC5)CC4)cc3c2C(C)C)cn2ccnc12` [Example 706, 6-(3-isopropyl-5-(1-(tetrahydro-2H-pyran-4-yl)piperidin-4-yl)-1H-indol-2-yl)-8-methoxyimidazo[1,2-a]pyridine], the IC50 (commonly the midpoint of a concentration-inhibition curve) was below 100 nM at human TLR8, 100 to 1000 nM on human TLR9 and below 100 nM on human TLR7.
Regarding `Cc1cc(-c2[nH]c3ccc(C4CCN(CC(C)(C)O)CC4)cc3c2C(C)C)cc2cnn(C)c12` [Example 762, 1-(4-(2-(1,7-dimethyl-1H-indazol-5-yl)-3-isopropyl-1H-indol-5-yl)piperidin-1-yl)-2-methylpropan-2-ol], the IC50 at human TLR8 was 100 to 1000 nM; on human TLR9, 1000 to 50000 nM; at human TLR7 it was 100 to 1000 nM.
In the case of `CC(C)c1c(-c2ccnc3c2ccn3S(C)(=O)=O)[nH]c2ccc(C3CCNCC3)cc12` [Example 3, 4-(3-isopropyl-5-(piperidin-4-yl)-1h-indol-2-yl)-1-(methylsulfonyl)-1H-pyrrolo[2,3-b]pyridine], the IC50 at human TLR8 is below 100 nM; against human TLR9, 100 to 1000 nM; against human TLR7, 100 to 1000 nM.
As for `Cc1cc(-c2[nH]c3ccc(C4CCN(CCCC(F)(F)F)CC4)cc3c2C(C)C)cn2nncc12` [Example 960, 6-(3-isopropyl-5-(1-(4,4,4-trifluorobutyl)piperidin-4-yl)-1H-indol-2-yl)-4-methyl-[1,2,3]triazolo[1,5-a]pyridine], the figures for the IC50 on human TLR8, on human TLR9 and on human TLR7 were 100 to 1000 nM, 1000 to 50000 nM and 100 to 1000 nM, respectively.
Take `CNC(=O)CN1CCC(c2ccc3[nH]c(-c4cc(C)c5nccn5n4)c(C(C)C)c3c2)CC1` [Example 448, 2-(4-(3-isopropyl-2-(8-methylimidazo[1,2-b]pyridazin-6-yl)-1H-indol-5-yl)piperidin-1-yl)-N-methylacetamide]: the IC50 against human TLR8 is below 100 nM; on human TLR9 it was 1000 to 50000 nM; on human TLR7, below 100 nM.
With `CNC(=O)CN1CCC(c2ccc3[nH]c(-c4ccn5nc(C)nc5c4)c(C(C)C)c3c2)CC1` [Example 331, 2-(4-(3-isopropyl-2-(2-methyl-[1,2,4]triazolo[1,5-a]pyridin-7-yl)-1H-indol-5-yl)piperidin-1-yl)-N-methylacetamide], the IC50 against human TLR8 is 1000 to 50000 nM; against human TLR9, 1000 to 50000 nM; at human TLR7, below 100 nM.
As for `Cc1cnc2[nH]ncc2c1-c1[nH]c2ccc(C3CCNCC3)cc2c1C(C)C` [Example 46, 4-(3-isopropyl-5-(piperidin-4-yl)-1H-indol-2-yl)-5-methyl-1H-pyrazolo[3,4-b]pyridine], the IC50 was below 100 nM on human TLR8, 1000 to 50000 nM against human TLR9 and below 100 nM against human TLR7.
In the case of `Cc1cc(-c2[nH]c3ccc(C4CCNCC4)cc3c2C(C)C)cn2cc(C(=O)N(C)CCO)nc12` [Example 268, N-(2-hydroxyethyl)-6-(3-isopropyl-5-(piperidin-4-yl)-1H-indol-2-yl)-N,8-dimethylimidazo[1,2-a]pyridine-2-carboxamide], the concentration for half-maximal inhibition (IC50) against human TLR8 was below 100 nM; against human TLR9, 1000 to 50000 nM; against human TLR7, below 100 nM.
Consider `CC(C)c1c(-c2ccnc3[nH]ncc23)[nH]c2ccc(C3CCN(Cc4cc(F)cnc4Cl)CC3)cc12` [Example 913, 4-(5-(1-((2-chloro-5-fluoropyridin-3-yl)methyl)piperidin-4-yl)-3-isopropyl-1H-indol-2-yl)-1H-pyrazolo[3,4-b]pyridine], for which the IC50 at human TLR8 was 100 to 1000 nM; at human TLR9, above 50000 nM; against human TLR7, 100 to 1000 nM.
For the molecule `CC(C)c1c(-c2c[nH]c3cccnc23)[nH]c2ccc(C3CCNCC3)cc12` [Example 19, 3-(3-isopropyl-5-(piperidin-4-yl)-1H-indol-2-yl)-1H-pyrrolo[3,2-b]pyridine], the 50% inhibitory concentration (IC50) against human TLR8 was in the range of 1000 to 50000 nM; on human TLR9, 100 to 1000 nM; against human TLR7, 100 to 1000 nM.
As for `CC(C)c1c(-c2ccn3nnnc3c2)[nH]c2ccc(C3CCN(CC(=O)N(C)C)CC3)cc12` [Example 304, 2-(4-(3-isopropyl-2-(tetrazolo[1,5-a]pyridin-7-yl)-1H-indol-5-yl)piperidin-1-yl)-N,N-dimethylacetamide], the IC50 against human TLR8 was 100 to 1000 nM; against human TLR9, 1000 to 50000 nM; against human TLR7 it was below 100 nM.
The corresponding values for `CC(C)c1c(-c2cc3cn[nH]c3cn2)[nH]c2ccc(C3CCNCC3)cc12` [Example 179, 5-(3-isopropyl-5-(piperidin-4-yl)-1H-indol-2-yl)-1H-pyrazolo[3,4-c]pyridine] are below 100 nM, 1000 to 50000 nM and below 100 nM.
